Test results: patent US20230031406A1, “COMPOUNDS AND COMPOSITIONS FOR TREATING CONDITIONS ASSOCIATED WITH NLRP ACTIVITY” (Novartis AG, priority 2018, published 2023)

System: PMA-differentiated THP-1 cells
Assay: IL-1β production in PMA-differentiated THP-1 cells stimulated with gramicidin (hTHP-1 assay containing 2% fetal bovine serum; Procedures 1 and 2)
Type: cell-based, human
Settings: Homo sapiens, THP-1, Table B3; hTHP-1 assay, 2% fetal bovine serum; class symbols; read-out: IC50
Procedure, shortened: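 Human monocytic THP-1 cells, matured overnight with PMA at 20 ng/ml, are seeded in low-serum (2% FBS) RPMI. Test compounds, at final concentrations from 100 down to 0.0017 μM, precede gramicidin (5 μM, 2 h) by one hour. Released IL-1β is then determined by HTRF.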

CC(C)n1nc(S(N)(=O)=NC(=O)Nc2c3c(nc4c2CC[C@H]4C)CCC3)cc1CO (single isomer, unassigned) [Example 643, (R) or (S)-5-(hydroxymethyl)-1-isopropyl-N′-(((R)-3-methyl-1,2,3,5,6,7-hexahydrodicyclopenta[b,e]pyridin-8-yl)carbamoyl)-1H-pyrazole-3-sulfonimidamide] and C[C@@H]1CCc2c1nc1c(c2NC(=O)N=[S@](N)(=O)c2cc([C@@H](C)O)cs2)CCC1 (single isomer, unassigned) [Example 661, (S)-4-((R) or (S)-1-hydroxyethyl)-N′-(((R)-3-methyl-1,2,3,5,6,7-hexahydrodicyclopenta[b,e]pyridin-8-yl)carbamoyl) thiophene-2-sulfonimidamide] fall in the same range of IC50: 1 to 5 µM for the first, 1 to 5 µM for the second.

CO[C@H]1COc2c(S(N)(=O)=NC(=O)Nc3c(C)c(C(F)(F)F)nc4c3CCC4)cnn2C1 (single isomer, unassigned) [Example 656, (R) or (S)-(6R)-6-methoxy-N′-((3-methyl-2-(trifluoromethyl)-6,7-dihydro-5H-cyclopenta[b]pyridin-4-yl)carbamoyl)-6,7-dihydro-5H-pyrazolo[5,1-b][1,3] oxazine-3-sulfonimidamide] and Cc1c(C(F)(F)F)nc2c(c1NC(=O)N=S(N)(=O)c1cnn3c1OCCC3)CCC2 (single isomer, unassigned) [Example 657, (R) or (S)-N′-((3-((3-2-(trifluoromethyl)-6,7-dihydro-5H-cyclopenta[b]pyridin-4-yl)carbamoyl)-6,7-dihydro-5H-pyrazolo[5,1-b][1,3]oxazine-3-sulfonimidamide] fall in the same range of IC50: 1 to 5 µM for the first, 1 to 5 µM for the second.

First: C[C@H](O)c1csc([S@@](N)(=O)=NC(=O)Nc2c3c(nc4c2CC[C@H]4C)CCC3)c1 (single isomer, unassigned) [Example 662, (S)-4-((S) or (R)-1-hydroxyethyl)-N′-(((R)-3-methyl-1,2,3,5,6,7-hexahydrodicyclopenta[b,e]pyridin-8-yl)carbamoyl)thiophene-2-sulfonimidamide]
Second: C[C@@H]1CCc2c1nc1c(c2NC(=O)N=[S@@](N)(=O)c2cc([C@@H](C)O)cs2)CCC1 (single isomer, unassigned) [Example 663, (R)-4-((R) or (S)-1-hydroxyethyl)-N′-(((R)-3-methyl-1,2,3,5,6,7-hexahydrodicyclopenta[b,e]pyridin-8-yl)carbamoyl) thiophene-2-sulfonimidamide]
The IC50 of the first is higher: 5 to 30 µM for the first, 0.04 to 0.2 µM for the second.

First: C[C@H](O)c1csc([S@](N)(=O)=NC(=O)Nc2c3c(nc4c2CC[C@H]4C)CCC3)c1 (single isomer, unassigned) [Example 664, (R)-4-((S) or (R)-1-hydroxyethyl)-N′-(((R)-3-methyl-1,2,3,5,6,7-hexahydrodicyclopenta[b,e]pyridin-8-yl)carbamoyl) thiophene-2-sulfonimidamide]
Second: CC(C)(O)c1csc(S(N)(=O)=NC(=O)Nc2cc(C(F)(F)F)nc3c2CCC3)c1 (single isomer, unassigned) [Example 667, (R) or (S)-4-(2-hydroxypropan-2-yl)-N′-((2-(trifluoromethyl)-6,7-dihydro-5H-cyclopenta[b]pyridin-4-yl)carbamoyl)thiophene-2-sulfonimidamide]
The IC50 of the first is lower: 0.04 to 0.2 µM for the first, 1 to 5 µM for the second. The first is the more potent here.

Same assay, conditions: Homo sapiens, THP-1, Table B3; hTHP-1 assay, 2% fetal bovine serum; numeric values; read-out: IC50

CC(C)n1nc(S(N)(=O)=NC(=O)Nc2c3c(nc4c2CC[C@H]4C)CCC3)cc1CO (single isomer, unassigned) [Example 644, (S) or (R)-5-(hydroxymethyl)-1-isopropyl-N′-(((R)-3-methyl-1,2,3,5,6,7-hexahydrodicyclopenta[b,e]pyridin-8-yl)carbamoyl)-1H-pyrazole-3-sulfonimidamide] and CO[C@H]1COc2c(S(N)(=O)=NC(=O)Nc3c(C)c(C(F)(F)F)nc4c3CCC4)cnn2C1 (single isomer, unassigned) [Example 655, (S) or (R)-(6R)-6-methoxy-N′-((3-methyl-2-(trifluoromethyl)-6,7-dihydro-5H-cyclopenta[b]pyridin-4-yl)carbamoyl)-6,7-dihydro-5H-pyrazolo[5,1-b][1,3] oxazine-3-sulfonimidamide] cannot be ordered by IC50: greater than 30 µM for the first, greater than 30 µM for the second.

Cc1c(C(F)(F)F)nc2c(c1NC(=O)N=S(N)(=O)c1cnn3c1OCCC3)CCC2 (single isomer, unassigned) [Example 658, (S) or (R)-N′-((3-methyl-2-(trifluoromethyl)-6,7-dihydro-5H-cyclopenta[b]pyridin-4-yl)carbamoyl)-6,7-dihydro-5H-pyrazolo[5,1-b][1,3] oxazine-3-sulfonimidamide] and CC(C)(O)c1csc(S(N)(=O)=NC(=O)Nc2cc(C(F)(F)F)nc3c2CCC3)c1 (single isomer, unassigned) [Example 668, (S) or (R)-4-(2-hydroxypropan-2-yl)-N′-((2-(trifluoromethyl)-6,7-dihydro-5H-cyclopenta[b]pyridin-4-yl)carbamoyl)thiophene-2-sulfonimidamide] cannot be ordered by IC50: greater than 30 µM for the first, greater than 30 µM for the second.

Same assay, conditions: Table B3; hTHP-1 assay, 2% fetal bovine serum; class symbols; read-out: IC50

Compared with CC(C)(O)c1csc(S(N)(=O)=NC(=O)Nc2c3c(nc(C(F)(F)F)c2C2CC2)CCC3)c1 (single isomer, unassigned) [Example 645, (S) or (R)-N′-((3-cyclopropyl-2-(trifluoromethyl)-6,7-dihydro-5H-cyclopenta[b]pyridin-4-yl)carbamoyl)-4-(2-hydroxypropan-2-yl) thiophene-2-sulfonimidamide], CC(C)(O)c1cc(F)c(S(N)(=O)=NC(=O)Nc2c3c(nc(C(F)(F)F)c2C2CC2)CCC3)s1 (single isomer, unassigned) [Example 659, (R) or (S)-N′-((3-cyclopropyl-2-(trifluoromethyl)-6,7-dihydro-5H-cyclopenta[b]pyridin-4-yl)carbamoyl)-3-fluoro-5-(2-hydroxypropan-2-yl) thiophene-2-sulfonimidamide] is lower in IC50: 5 to 30 µM for the first, 0.2 to 1 µM for the second. The second is the more potent here.

First: CC(C)(O)c1csc(S(N)(=O)=NC(=O)Nc2c3c(nc(C(F)(F)F)c2C2CC2)CCC3)c1 (single isomer, unassigned) [Example 646, (R) or (S)-N′-((3-((3-2-(trifluoromethyl)-6,7-dihydro-5H-cyclopenta[b]pyridin-4-yl)carbamoyl)-4-(2-hydroxypropan-2-yl)thiophene-2-sulfonimidamide]
Second: CC(C)(O)c1cc(F)c(S(N)(=O)=NC(=O)Nc2c3c(nc(C(F)(F)F)c2C2CC2)CCC3)s1 (single isomer, unassigned) [Example 660, (S) or (R)-N′-((3-cyclopropyl-2-(trifluoromethyl)-6,7-dihydro-5H-cyclopenta[b]pyridin-4-yl)carbamoyl)-3-fluoro-5-(2-hydroxypropan-2-yl) thiophene-2-sulfonimidamide]
The IC50 of the first is lower: 0.04 to 0.2 µM for the first, 5 to 30 µM for the second. The first is the more potent here.

First: NS(=O)(=NC(=O)Nc1c2c(nc3c1CCC31CC1)CCC2)c1ccn(CCO)n1 (single isomer, unassigned) [Example 647, (R) or (S)-1-(2-hydroxyethyl)-N′-((1′,5′,6′,7′-tetrahydro-2′H-spiro[cyclopropane-1,3′-dicyclopenta[b,e]pyridin]-8′-yl)carbamoyl)-1H-pyrazole-3-sulfonimidamide]
Second: CCn1cc(F)c(S(N)(=O)=NC(=O)Nc2c3c(nc4c2CC[C@H]4C)CCC3)n1 (single isomer, unassigned) [Example 669, (R) or (S)-1-ethyl-4-fluoro-N′-(((R)-3-methyl-1,2,3,5,6,7-hexahydrodicyclopenta[b,e]pyridin-8-yl)carbamoyl)-1H-pyrazole-3-sulfonimidamide]
The IC50 of the first is higher: 0.2 to 1 µM for the first, 0.008 to 0.04 µM for the second. The second is the more potent here.

First: NS(=O)(=NC(=O)Nc1c2c(nc3c1CCC31CC1)CCC2)c1ccn(CCO)n1 (single isomer, unassigned) [Example 648, (S) or (R)-1-(2-hydroxyethyl)-N′-((1′,5′,6′,7′-tetrahydro-2′H-spiro[cyclopropane-1,3′-dicyclopenta[b,e]pyridin]-8′-yl)carbamoyl)-1H-pyrazole-3-sulfonimidamide]
Second: CCn1cc(F)c(S(N)(=O)=NC(=O)Nc2c3c(nc4c2CC[C@H]4C)CCC3)n1 (single isomer, unassigned) [Example 670, (S) or (R)-1-ethyl-4-fluoro-N′-(((R)-3-methyl-1,2,3,5,6,7-hexahydrodicyclopenta[b,e]pyridin-8-yl)carbamoyl)-1H-pyrazole-3-sulfonimidamide]
The IC50 of the first is higher: 5 to 30 µM for the first, 1 to 5 µM for the second. The second is the more potent here.

First: CCn1cc(F)c(S(N)(=O)=NC(=O)Nc2c(C)c(C(F)(F)F)nc3c2CCC3)n1 (single isomer, unassigned) [Example 649, (R) or (S)-1-ethyl-4-fluoro-N′-((3-methyl-2-(trifluoromethyl)-6,7-dihydro-5H-cyclopenta[b]pyridin-4-yl)carbamoyl)-1H-pyrazole-3-sulfonimidamide]
Second: CC(=O)c1csc(S(N)(=O)=NC(=O)Nc2c3c(nc4c2CC[C@H]4C)CCC3)c1 (single isomer, unassigned) [Example 665, (R) or (S)-4-acetyl-N′-(((R)-3-methyl-1,2,3,5,6,7-hexahydrodicyclopenta[b,e]pyridin-8-yl)carbamoyl)thiophene-2-sulfonimidamide]
The IC50 of the first is lower: 0.04 to 0.2 µM for the first, 0.2 to 1 µM for the second.

First: CCn1cc(F)c(S(N)(=O)=NC(=O)Nc2c(C)c(C(F)(F)F)nc3c2CCC3)n1 (single isomer, unassigned) [Example 650, (S) or (R)-1-ethyl-4-fluoro-N′-((3-methyl-2-(trifluoromethyl)-6,7-dihydro-5H-cyclopenta[b]pyridin-4-yl)carbamoyl)-1H-pyrazole-3-sulfonimidamide]
Second: CC(=O)c1csc(S(N)(=O)=NC(=O)Nc2c3c(nc4c2CC[C@H]4C)CCC3)c1 (single isomer, unassigned) [Example 666, (S) or (R)-4-acetyl-N′-(((R)-3-methyl-1,2,3,5,6,7-hexahydrodicyclopenta[b,e]pyridin-8-yl)carbamoyl)thiophene-2-sulfonimidamide]
The IC50 of the first is lower: 1 to 5 µM for the first, 5 to 30 µM for the second.
